Laboratory results published in patent US10934332B2, “Structure-based peptide inhibitors that target the Tau VQIINK fibrillization segment” (THE REGENTS OF THE UNIVERSITY OF CALIFORNIA, priority 2017, dated 2021).
Where two headings read alike, the source gives them in different places. No end group written: not given here.

Columns and labels:
Tau40 = biological target: T1, Tau40 (Homo sapiens, UniProt P10636); assay: ThT assay of Tau40 fibril formation; type: biochemical; conditions: heparin, shaking 700 rpm, 37° C.
T1 construct: Human Tau40 (residues 1-441) was expressed in pET28b; His-tag (C); made in house; host or cells: BL21-Gold E. coli
T1 sequence (P10636 1-441 isoform P10636-8): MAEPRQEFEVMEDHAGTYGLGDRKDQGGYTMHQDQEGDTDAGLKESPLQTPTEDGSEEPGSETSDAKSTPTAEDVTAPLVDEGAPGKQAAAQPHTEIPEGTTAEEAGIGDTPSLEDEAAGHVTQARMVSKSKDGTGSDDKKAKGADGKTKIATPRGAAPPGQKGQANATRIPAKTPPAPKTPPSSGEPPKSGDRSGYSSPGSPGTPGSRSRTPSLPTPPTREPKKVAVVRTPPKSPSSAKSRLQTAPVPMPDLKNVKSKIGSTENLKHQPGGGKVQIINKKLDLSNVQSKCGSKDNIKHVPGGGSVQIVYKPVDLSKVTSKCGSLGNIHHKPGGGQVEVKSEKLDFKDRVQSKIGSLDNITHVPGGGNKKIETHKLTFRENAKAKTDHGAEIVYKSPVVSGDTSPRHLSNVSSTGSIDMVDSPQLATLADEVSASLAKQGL
Method: The effect on fibril formation of Tau40 of the two resulting VQIINK (SEQ ID NO: 11) inhibitors, MINK (which contains a Met at position 4 to disrupt interface A) and WINK (which instead contains a Trp) was evaluated in vitro using a ThT assay.
Human Tau40 (residues 1-441) was expressed in pET28b with a C-terminal His-tag in BL21-Gold E. coli cells grown in TB to an OD600=0.8. Cells were induced with 0.5 mM IPTG for 3 hours at 37° C. and lysed by sonication in 50 mM Tris (pH 8.0) with 500 mM NaCl, 20 mM imidazole, 1 mM beta-mercaptoethanol, and HALT protease inhibitor. Cells were lysed by sonication, clarified by centrifugation at 15,000 rpm for 15 minutes, and passed over a 5 ml HisTrap affinity column. The column was washed with lysis buffer and eluted over a gradient of imidazole from 20 to 300 mM. Fractions containing purified Tau40 were dialyzed into 50 mM MES buffer (pH 6.0) with 50 mM NaCl and 1 mM beta-mercaptoethanol and purified by cation exchange as described for K18. Peak fractions were polished on a HiLoad 16/600 Superdex […] in 1×PBS (pH 7.4), and concentrated to ˜20-60 mg/ml by ultrafiltration using a 10 kDa cutoff.
Concentrated Tau protein was diluted into PBS buffer (pH 7.4) to a final concentration as indicated in the text. Proteins were shaken as solutions containing 75 μM ThT, 0.5 mg/ml heparin, 1 mM DTT, and a two-fold molar excess of inhibitor (when indicated) in 96-well plates with a plastic bead to enhance agitation. ThT fluorescence was measured with excitation and emission wavelengths of 440 and 480 nm, and averaged curves were generated from duplicate measurements.

[1] = test system: HEK293 biosensor cells stably expressing full-length Tau 4R1N P301S-EYFP; assay: Biosensor cell seeding with Tau40 fiber grown in the presence of inhibitor; type: cell-based, human; conditions: cells seeded with 125 nM Tau40 fiber grown with two-fold excess of inhibitor; about 61% in the absence of inhibitor
Text: Cells seeded with Tau40 fiber grown with MINK or WINK reduced the percentage of seeded cells to 23 and 41%, respectively.
(§1) Engineered HEK293 cell lines stably expressing Tau40-YFP P301S, referred to as “tau biosensor cells” were engineered by Marc Diamond's lab at UTSW. Cells were maintained in DMEM (Life Technologies, cat. 11965092) supplemented with 10% (vol/vol) FBS (Life Technologies, cat. A3160401), 1% penicillin/streptomycin (Life Technologies, cat. 15140122), and 1% Glutamax (Life Technologies, cat. 35050061) at 37° C., 5% CO2 in a humidified incubator. Tau40 aggregates were prepared in PBS (pH 7.4) with 1 mM DTT by shaking 25 μM Tau40 with 0.5 mg/ml heparin in the presence or absence inhibitor peptide, as indicated. Fibers were sonicated in a cuphorn water bath for 3 minutes before seeding cells. For seeding, fibers were diluted in OptiMEM (Life Technologies, cat. 31985070) and transfected using Lipofectamine 2000 (Life Technologies, cat. 11668027) according to the manufacturer's instructions. After seeding, cells were imaged using a ZEISS Axio Observer D1 fluorescence microscope using the YFP fluorescence channel and Tau aggregates were counted in ImageJ software.

[2] = test system: Full-length Tau-YFP biosensor cells seeded with pre-formed Tau40 fibers; type: cell-based, human; conditions: for inhibition of seeding by pre-formed Tau40 fibers (in words): pre-formed Tau40 fibrils incubated with inhibitor before applying to biosensor cells
Method: To test whether VQIINK (SEQ ID NO: 11) inhibitors can cap pre-formed fibers to block their spread, Tau40 amyloid fibrils were incubated with varying concentrations of inhibitor before applying to biosensor cells and measuring seeding. In addition, a third VQIINK (SEQ ID NO: 11) inhibitor, RINK which contains an Arg at position 4, was also tested.
as §1

[3] = 10 μM Tau40, two-fold mole excess of inhibitor
[4] = 25 μM Tau40, two-fold mole excess of inhibitor

| Substance | Tau40 fibril formation (ThT fluorescence) (Tau40; [3]) | Tau40 fibril formation (ThT fluorescence) (Tau40; [4]) | percentage of seeded cells (cells with intracellular aggregates) [1] | IC50 [2] | inhibition of seeding by pre-formed Tau40 fibers (in words) [2] | seeding by Tau40 fibers in biosensor cells (fluorescence images) ([2]; 5 μM inhibitor) | seeding by Tau40 fibers in biosensor cells (fluorescence images) ([2]; 25 μM inhibitor) |
| --- | --- | --- | --- | --- | --- | --- | --- |
| DVQWINKKRK [WINK, DVQWINKKRK] | reducing the amount of Tau40 aggregation to about half | reduced Tau40 aggregation to about half | 41% | 25 µM | inhibit seeding by Tau40 fibers in a concentration dependent fashion | – | – |
| DVQMINKKRK [MINK, DVQMINKKRK] | completely inhibiting any detectable Tau40 fibril formation for at least 60 hours | reduced Tau40 aggregation to about half | 23% | 22 µM | inhibit seeding by Tau40 fibers in a concentration dependent fashion | – | – |
| W-WINK: Phase 2 inhibitor: WINK incorporating a Trp steric clash at position 3 (DVWWINKKRK) | – | – | – | – | performed more poorly than W-MINK | – | – |
| DVQRINKKRK | – | – | – | – | inhibited more poorly than MINK and WINK | – | – |
| DVWMINKKRK [W-MINK, DVWMINKKRK] | – | – | – | 9 µM | – | Tau40 fibers are still able to induce seeding | seeding by Tau40 fibers is no longer observed |
